Laboratory results published in patent US11534423B2, “Methods and compositions for improving exercise endurance, performance, or tolerance” (Washington University, priority 2019, dated 2022).

What was measured:
S1P = target: T1, S1P (Mus musculus, UniProt Q9WTZ2); conditions: 30 mg/kg i.p. injection every 6 hrs for 24 hr; cited from earlier work
T1 construct: from tissue; host or cells: mouse liver (in vivo, i.p. dosing; earlier mouse studies reported elsewhere)
T1 sequence (Q9WTZ2 187-1052): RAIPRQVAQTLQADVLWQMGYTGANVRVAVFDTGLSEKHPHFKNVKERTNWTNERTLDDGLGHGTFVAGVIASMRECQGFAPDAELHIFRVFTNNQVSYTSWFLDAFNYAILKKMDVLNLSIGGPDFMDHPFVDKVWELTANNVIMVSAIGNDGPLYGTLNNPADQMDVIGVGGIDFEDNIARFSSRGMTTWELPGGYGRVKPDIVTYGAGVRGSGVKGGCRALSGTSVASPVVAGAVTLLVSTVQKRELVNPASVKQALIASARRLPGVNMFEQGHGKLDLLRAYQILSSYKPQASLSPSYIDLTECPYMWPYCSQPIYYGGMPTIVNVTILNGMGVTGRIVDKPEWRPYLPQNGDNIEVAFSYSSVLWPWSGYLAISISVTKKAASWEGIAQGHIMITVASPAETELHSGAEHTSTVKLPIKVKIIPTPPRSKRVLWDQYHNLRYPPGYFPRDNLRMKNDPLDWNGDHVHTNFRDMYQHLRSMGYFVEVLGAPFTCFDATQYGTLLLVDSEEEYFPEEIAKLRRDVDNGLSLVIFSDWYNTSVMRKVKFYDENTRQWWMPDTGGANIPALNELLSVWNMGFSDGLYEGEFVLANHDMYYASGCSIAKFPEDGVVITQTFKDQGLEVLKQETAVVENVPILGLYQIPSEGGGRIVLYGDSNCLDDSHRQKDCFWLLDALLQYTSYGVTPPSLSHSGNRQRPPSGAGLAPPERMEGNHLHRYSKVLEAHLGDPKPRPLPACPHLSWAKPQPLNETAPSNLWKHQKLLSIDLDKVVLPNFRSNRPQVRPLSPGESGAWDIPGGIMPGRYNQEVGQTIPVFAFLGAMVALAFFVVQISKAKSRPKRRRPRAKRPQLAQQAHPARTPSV

Wild-type mice = assay: acute exercise test to exhaustion after intraperitoneal injection; assay type: in vivo; conditions: PF-429242 or vehicle, N=3, FIG. 14
Method: Exercise endurance: Mice will undergo a single bout of a graded exercise test to exhaustion using a 4-lane treadmill on a 0% incline, with an electric grid at the back of each treadmill. Three days before the endurance test, mice will have 3 days of acclimation at 10 m/min at 0% incline for 5 min. The test will involve a 5 min acclimation period on the treadmill (turned off), followed by: 5 m/min for 5 min; 10 m/min for 5 min; 15 m/min for 10 min; 25 m/min for 10 min; and finally, 30 m/min until exhaustion is reached. Exhaustion is defined as the inability of the mouse to resume running within 10 s after direct contact on the electric grid and inability to right itself when placed on its back.
Wild-type mice were treated with PF-429242 or vehicle via intraperitoneal injection, and subjected to an acute exercise test to exhaustion (N=3).

For `CCN(CC)Cc1ccc(C(=O)N(CCc2ccccc2OC)[C@@H]2CCNC2)cc1` [PF-429242], the “S1P inhibition in mouse liver” value (S1P) is given as “effectively inhibits S1P” and the exercise tolerance (Wild-type mice) is given as “enhanced exercise tolerance”.
